Laboratory results reported in the Kinase Knowledgebase extract (Sharma et al. 2016).

Target: EGFR (UniProt P00533)
Assay: Inhibition of EGFR Kinase Activity

Sequence of EGFR (P00533 whole entry, looked up): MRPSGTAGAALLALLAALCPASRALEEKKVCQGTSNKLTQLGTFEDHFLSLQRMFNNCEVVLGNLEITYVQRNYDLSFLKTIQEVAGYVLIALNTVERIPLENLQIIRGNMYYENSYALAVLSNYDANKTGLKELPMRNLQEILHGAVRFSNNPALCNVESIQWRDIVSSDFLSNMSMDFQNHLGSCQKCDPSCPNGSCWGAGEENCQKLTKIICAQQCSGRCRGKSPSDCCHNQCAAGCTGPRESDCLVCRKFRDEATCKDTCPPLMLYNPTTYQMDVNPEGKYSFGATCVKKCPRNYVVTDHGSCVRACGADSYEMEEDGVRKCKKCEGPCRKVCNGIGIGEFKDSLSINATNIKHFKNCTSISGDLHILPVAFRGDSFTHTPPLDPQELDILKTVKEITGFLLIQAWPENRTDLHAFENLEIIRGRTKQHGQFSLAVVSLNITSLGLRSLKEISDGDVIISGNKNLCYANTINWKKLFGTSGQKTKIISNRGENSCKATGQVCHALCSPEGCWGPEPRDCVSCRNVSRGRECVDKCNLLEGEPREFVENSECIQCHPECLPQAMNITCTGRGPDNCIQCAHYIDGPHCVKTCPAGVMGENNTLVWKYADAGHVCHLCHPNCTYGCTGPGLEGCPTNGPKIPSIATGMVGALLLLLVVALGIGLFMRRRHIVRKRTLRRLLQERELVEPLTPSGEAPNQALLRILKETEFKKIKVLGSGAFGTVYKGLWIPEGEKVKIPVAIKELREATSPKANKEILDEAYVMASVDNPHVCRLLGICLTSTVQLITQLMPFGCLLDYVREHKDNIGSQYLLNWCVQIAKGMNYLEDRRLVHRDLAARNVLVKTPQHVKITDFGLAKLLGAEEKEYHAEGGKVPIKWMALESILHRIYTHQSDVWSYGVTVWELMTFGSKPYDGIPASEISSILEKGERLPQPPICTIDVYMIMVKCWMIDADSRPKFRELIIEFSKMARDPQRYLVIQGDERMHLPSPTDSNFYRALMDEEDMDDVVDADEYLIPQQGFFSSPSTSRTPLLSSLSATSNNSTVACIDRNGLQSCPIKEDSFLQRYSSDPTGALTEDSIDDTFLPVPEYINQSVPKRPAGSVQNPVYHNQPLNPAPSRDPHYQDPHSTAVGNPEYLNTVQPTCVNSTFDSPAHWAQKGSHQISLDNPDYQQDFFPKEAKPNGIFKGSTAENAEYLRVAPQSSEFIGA

Compound	IC50
CC#CC(=O)Nc1cccc(Nc2ncnc(Nn3c(=O)n(C(=O)C(C)(C)C)c4ccccc43)n2)c1	< 50 µM
CC#CC(=O)Nc1cccc(Nc2ncnc(Nc3cccc(Cl)c3)n2)c1	< 50 µM
C=CC(=O)Nc1cc(Nc2ncnc(N(C)c3ccc4c(cnn4Cc4ccccc4)c3)n2)ccc1OCCCC1CCN(C)CC1	< 50 µM
C#Cc1cccc(Nc2ncnc(Nc3cccc(NC(=O)C=C)c3)n2)c1	< 50 µM
C=CC(=O)Nc1ccc(Nc2ncnc(N(C)n3c(=O)n(C(=O)C(C)(C)C)c4ccccc43)n2)cc1	< 50 µM
C#CCC(=O)Nc1cccc(Nc2ncnc(NN3CCCc4ccc(C(F)(F)F)cc43)n2)c1	< 50 µM
C=CC(=O)Nc1cccc(Nc2ncnc(N(CC)c3ccc(OCc4ccccc4)cc3)n2)c1	< 50 µM
C=CC(=O)Nc1ccc(Nc2ncnc(N(CC)c3ccc(OCc4ccccc4)cc3)n2)cc1	< 50 µM
C=CCN(c1ccc(OCCOC)c(OC)c1)c1ncnc(Nc2cccc(NC(=O)C#CC)c2)n1	< 50 µM
CC#CC(=O)Nc1cccc(Nc2ncnc(N(C)c3ccc(OCC)c(OCC)c3)n2)c1	< 50 µM
C=CCN(c1ccc(OCc2ccccc2)cc1)c1ncnc(Nc2cccc(NC(=O)C=C)c2)n1	< 50 µM
C=CCN(c1ncnc(Nc2ccc(NC(=O)C=C)cc2)n1)n1c(=O)n(C(=O)C(C)(C)C)c2ccccc21	< 50 µM
C=CC(=O)Nc1cccc(Nc2ncnc(Nc3ccc(OCc4ccc(Cl)c(Cl)c4)c(C(F)(F)F)c3)n2)c1	< 50 µM
C=CC(=O)Nc1cc(Nc2ncnc(N(C)c3cccc(Cl)c3)n2)ccc1OCCCC1CCN(C)CC1	< 50 µM
C=CC(=O)Nc1ccc(Nc2ncnc(Nc3ccc(OCCOC)c(OC)c3)n2)cc1	< 50 µM
C=CC(=O)Nc1ccc(Nc2ncnc(N(C)c3cccc(CC(=O)OC)c3)n2)cc1	< 50 µM
C=CC(=O)Nc1ccc(Nc2ncnc(N(C)c3ccc(OC)c(OC)c3)n2)cc1	< 50 µM
CC#CC(=O)Nc1cc(Nc2ncnc(N(C)c3cccc(Cl)c3)n2)ccc1OCCCC1CCN(C)CC1	< 50 µM
C=CC(=O)Nc1cccc(Nc2ncnc(Nc3ccc(OCCO)cc3)n2)c1	< 50 µM
C=CC(=O)Nc1ccc(Nc2ncnc(N(C)c3cccc(C)c3)n2)cc1	< 50 µM
C=CC(=O)Nc1cccc(Nc2ncnc(Nc3ccc(OC)c(OCCOC)c3)n2)c1	< 50 µM
C=CC(=O)Nc1ccc(Nc2ncnc(Nc3ccc(OCCC)c(OCCC)c3)n2)cc1	< 50 µM
C=CC(=O)Nc1cccc(Nc2ncnc(N(C)c3cccc4ccccc34)n2)c1	< 50 µM
C=CC(=O)Nc1ccc(Nc2ncnc(N(CC)c3ccc(C(=O)OC)cc3)n2)cc1	< 50 µM

Compound	IC50
C=CC(=O)Nc1cccc(Nc2ncnc(Nc3ccc(OCc4ccc(F)c(F)c4)c(F)c3)n2)c1	< 50 µM
C=CC(=O)Nc1ccc(Nc2ncnc(N(C)c3ccc(OCCOC)c(OC)c3)n2)cc1	< 50 µM
C=CC(=O)Nc1cc(Nc2ncnc(Nc3ccc4c(cnn4Cc4ccccc4)c3)n2)ccc1OCCCN1CCOCC1	< 50 µM
CC#CC(=O)Nc1cc(Nc2ncnc(Nc3ccc4c(cnn4Cc4ccccc4)c3)n2)ccc1OCCCN1CCOCC1	< 50 µM
C=CC(=O)Nc1cccc(Nc2ncnc(N(C)c3cccc(C)c3)n2)c1	< 50 µM
CC#CC(=O)Nc1cccc(Nc2ncnc(Nc3cccc(S(=O)(=O)c4ccc([N+](=O)[O-])cc4)c3)n2)c1	< 50 µM
C=CC(=O)Nc1ccc(Nc2ncnc(N(C)c3cc(Cl)ccc3C)n2)cc1	< 50 µM
CC#CC(=O)Nc1cccc(Nc2ncnc(N(CC)c3cc(Cl)ccc3C)n2)c1	< 50 µM
CC#CC(=O)Nc1cccc(Nc2ncnc(N(C)c3cccc(C(N)=O)c3)n2)c1	< 50 µM
C=CCN(c1ccc(F)c(Cl)c1)c1ncnc(Nc2cccc(NC(=O)C#CC)c2)n1	< 50 µM
C=CC(=O)Nc1ccc(Nc2ncnc(N(C)n3c(=O)[nH]c4ccccc43)n2)cc1	< 50 µM
C=CC(=O)Nc1cccc(Nc2ncnc(NN3CCCc4ccc(C(F)(F)F)cc43)n2)c1	< 50 µM
C=CC(=O)Nc1ccc(Nc2ncnc(N(CC)c3cccc(C(N)=O)c3)n2)cc1	< 50 µM
CCN(c1ccc2NN(=Cc2c1)Cc3ccccn3)c4ncnc(Nc5cccc(NC(=O)C=C)c5)n4	< 50 µM
C=CCN(c1ccc(OCCC)c(OCCC)c1)c1ncnc(Nc2ccc(NC(=O)C=C)cc2)n1	< 50 µM
C=CC(=O)Nc1ccc(Nc2ncnc(N(CC)n3c(=O)[nH]c4ccccc43)n2)cc1	< 50 µM
C=CCN(c1ccc(OCCO)cc1)c1ncnc(Nc2cccc(NC(=O)C#CC)c2)n1	< 50 µM
CN(c1ccc2NN(=Cc2c1)Cc3ccccn3)c4ncnc(Nc5ccc(NC(=O)C=C)cc5)n4	< 50 µM
C=CC(=O)Nc1cccc(Nc2ncnc(Nc3ccc(OCc4ccccc4)c(Cl)c3)n2)c1	< 50 µM
C=CCN(c1ccc(OC)c(OCCOC)c1)c1ncnc(Nc2cccc(NC(=O)C#CC)c2)n1	< 50 µM
C=CC(=O)Nc1cc(Nc2ncnc(N(C)c3ccc(OCc4ccccc4)c(Cl)c3)n2)ccc1OCCCN1CCOCC1	< 50 µM
C=CCN(c1ccc(F)c(Cl)c1)c1ncnc(Nc2cccc(NC(=O)C=C)c2)n1	< 50 µM
C=CC(=O)Nc1ccc(Nc2ncnc(N(C)c3ccc(OCc4ccccc4)c(Cl)c3)n2)cc1	< 50 µM
C=CC(=O)Nc1ccc(Nc2ncnc(Nc3ccc4NN(=Cc4c3)Cc5ccccn5)n2)cc1	< 50 µM

Compound	IC50
C=CCN(c1ncnc(Nc2cccc(NC(=O)C=C)c2)n1)C1CC1c1ccccc1 (stereo not given)	< 50 µM
C=CC(=O)Nc1cc(Nc2ncnc(N(C)c3ccc4c(ccn4Cc4ccccc4)c3)n2)ccc1OCCCC1CCN(C)CC1	< 50 µM
CC#CC(=O)Nc1cccc(Nc2ncnc(N(C)c3ccc(OCCO)cc3)n2)c1	< 50 µM
C=CC(=O)Nc1cccc(Nc2ncnc(Nc3cccc(S(=O)(=O)c4ccc([N+](=O)[O-])cc4)c3)n2)c1	< 50 µM
C=CC(=O)Nc1cc(Nc2ncnc(NN3CCCc4ccc(Cl)cc43)n2)ccc1OCCCN1CCOCC1	< 50 µM
C=CC(=O)Nc1ccc(Nc2ncnc(N(C)c3ccc(F)c(Cl)c3)n2)cc1	< 50 µM
C=CC(=O)Nc1cccc(Nc2ncnc(NN3CCCc4cc(OC)ccc43)n2)c1	< 50 µM
C=CC(=O)Nc1cc(Nc2ncnc(NN3CCCc4ccc(Cl)cc43)n2)ccc1OCCCC1CCN(C)CC1	< 50 µM
C=CC(=O)Nc1cccc(Nc2ncnc(N(C)c3ccc4c(cnn4Cc4ccccc4)c3)n2)c1	< 50 µM
CC#CC(=O)Nc1cccc(Nc2ncnc(N(CC)c3ccc(OCCO)cc3)n2)c1	< 50 µM
CC#CC(=O)Nc1cccc(Nc2ncnc(N(C)c3cccc(S(=O)(=O)c4ccc([N+](=O)[O-])cc4)c3)n2)c1	< 50 µM
C=CC(=O)Nc1ccc(Nc2ncnc(N(CC)c3cc(Cl)ccc3C)n2)cc1	< 50 µM
C=CC(=O)Nc1ccc(Nc2ncnc(N(C)c3ccc(OC)c(OCCOC)c3)n2)cc1	< 50 µM
C=CCN(c1ccc2NN(=Cc2c1)Cc3ccccn3)c4ncnc(Nc5cccc(NC(=O)C=C)c5)n4	< 50 µM
C=CC(=O)Nc1ccc(Nc2ncnc(NN3CCCc4cc(OC)ccc43)n2)cc1	< 50 µM
C=CC(=O)Nc1cccc(Nc2ncnc(Nc3cccc(Br)c3)n2)c1	< 50 µM
C=CC(=O)Nc1ccc(Nc2ncnc(N(CC)c3cccc4ccccc34)n2)cc1	< 50 µM
C=CC(=O)Nc1ccc(Nc2ncnc(NC3CC3c3ccc(Cl)cc3)n2)cc1 (stereo not given)	< 50 µM
C=CCN(c1ccc2c(cnn2Cc2ccccc2)c1)c1ncnc(Nc2cccc(NC(=O)C=C)c2)n1	< 50 µM
C=CCN(c1ccc(OC)c(OC)c1)c1ncnc(Nc2cccc(NC(=O)C=C)c2)n1	< 50 µM
C=CC(=O)N(CCCN1CCOCC1)c1cccc(Nc2ncnc(Nc3cc(Cl)ccc3C)n2)c1	< 50 µM
CC#CC(=O)Nc1cc(Nc2ncnc(Nc3cccc(Cl)c3)n2)ccc1OCCCN1CCOCC1	< 50 µM
CC#CC(=O)Nc1cccc(Nc2ncnc(Nc3ccc(OC)c(OC)c3)n2)c1	< 50 µM
C=CCN(c1ncnc(Nc2cccc(NC(=O)C=C)c2)n1)C1CC1c1ccc(Cl)cc1 (stereo not given)	< 50 µM

Compound	IC50
C=CC(=O)Nc1ccc(Nc2ncnc(N(C)c3ccc4c(cnn4Cc4ccccc4)c3)n2)cc1OC	< 50 µM
C=CCN(c1ccc(OCCOC)c(OC)c1)c1ncnc(Nc2ccc(NC(=O)C=C)cc2)n1	< 50 µM
CC#CC(=O)Nc1cccc(Nc2ncnc(N(C)c3cccc4ccccc34)n2)c1	< 50 µM
C=CC(=O)Nc1cccc(Nc2ncnc(Nc3ccc(OCc4cccc(C(F)(F)F)c4)c(OC)c3)n2)c1	< 50 µM
CC#CC(=O)Nc1cc(Nc2ncnc(Nc3ccc4c(cnn4Cc4ccccc4)c3)n2)ccc1OC	< 50 µM
CC#CC(=O)Nc1cccc(Nc2ncnc(N(CC)c3cccc(Cl)c3)n2)c1	< 50 µM
C=CC(=O)N(CCCN1CCOCC1)c1cccc(Nc2ncnc(N(C)c3cccc(Cl)c3)n2)c1	< 50 µM
C=CC(=O)Nc1ccc(Nc2ncnc(N(C)c3ccc(OCC)c(OCC)c3)n2)cc1	< 50 µM
C=CC(=O)Nc1ccc(Nc2ncnc(Nc3ccc(F)c(Cl)c3)n2)cc1	< 50 µM
C=CC(=O)Nc1cccc(Nc2ncnc(Nc3ccc(S(=O)(=O)c4ccccc4)cc3)n2)c1	< 50 µM
C=CC(=O)Nc1cccc(Nc2ncnc(N(CC)n3c(=O)n(C(=O)C(C)(C)C)c4ccccc43)n2)c1	< 50 µM
CC#CC(=O)Nc1cccc(Nc2ncnc(Nc3cccc(C(N)=O)c3)n2)c1	< 50 µM
C=CC(=O)N(OCCCC1CCN(C)CC1)c1cccc(Nc2ncnc(NN3CCCc4ccc(Cl)cc43)n2)c1	< 50 µM
C=CCN(c1ccc(OCC)c(OCC)c1)c1ncnc(Nc2cccc(NC(=O)C#CC)c2)n1	< 50 µM
C=CC(=O)Nc1cccc(Nc2ncnc(Nc3ccc(OCc4ccccc4Br)c(Cl)c3)n2)c1	< 50 µM
CC#CC(=O)Nc1cccc(Nc2ncnc(Nc3ccc(OCCO)cc3)n2)c1	< 50 µM
C=CC(=O)Nc1ccc(Nc2ncnc(Nc3cccc4ccccc34)n2)cc1	< 50 µM
C=CC(=O)Nc1cccc(Nc2ncnc(Nc3ccc4c(cnn4Cc4ccccn4)c3)n2)c1	< 50 µM
C=CCN(c1cccc(CC(=O)OC)c1)c1ncnc(Nc2ccc(NC(=O)C=C)cc2)n1	< 50 µM
C=CC(=O)Nc1ccc(Nc2ncnc(N(CC)C3CC3c3ccccc3)n2)cc1 (stereo not given)	< 50 µM
C=CC(=O)Nc1cccc(Nc2ncnc(N(CC)c3cccc(C)c3)n2)c1	< 50 µM
C=CC(=O)Nc1cccc(Nc2ncnc(N3CCCc4ccc(Cl)cc43)n2)c1	< 50 µM
C=CCN(c1ncnc(Nc2ccc(NC(=O)C=C)cc2)n1)N1CNc2ccccc21	< 50 µM
